Test results taken from patent publication US20140243350A1, “USE OF SEROTONIN RECEPTOR AGONISTS FOR TREATMENT OF MOVEMENT DISORDERS” (CONTERA PHARMA APS, priority 2011, published 2014).
Read-outs that look alike come from different tables or passages of the source.

What was measured:
[1] = tested on: naïve rats; conditions: retigabine alone 10 mg/kg i.p.; for total move distance (locomotor activity) in open field test: FIG. 6; for total velocity (locomotor activity) in open field test: FIG. 7; for locomotor activity (moving distance and velocity) in open field test: FIGS. 6 and 7
Experimental: Species: 60 Sprague-Dawley male rats (180-220 g, bred in house, originally from SLAC Labortory Animal Co. Ltd) at 9-week of age.
Administration and dose regimen for the groups of animals (each comprising 10 rats):
Vehicle: 10% Tween 80, i.p., 30 min before test, n=10. Buspirone 1: Buspirone (From Sigma, Cat. No. B7148, Lot. No. 042K1763Z) 1 mg/kg, i.p. 30 min before test, n=10. Buspirone 2: Buspirone 2 mg/kg, i.p. 30 min before test, n=10.
Rats were put in open-field chambers (dimensions 40 cm×40 cm×40 cm) 30 minutes after dosing. After a 15 minutes habituation, locomotion were recorded and analyzed by Enthovision Video Tracking Software (Noldus Information Technology, Netherlands) for 60 minutes. All locomotor activities were done during dark phase and to eliminate olfactory cues, the arena was thoroughly cleaned with 70% v/v ethanol between each test.
Data statistics: The total locomotor activity is expressed as total moved distance (cm) and average velocity (cm/s) every 10 minutes during 60 minutes. The data were analyzed using One-Way ANOVA and the Tukey post-hoc test. The locomotor activity in six time point is expressed as moved distance (cm) and average velocity (cm/s) every 10 minutes. The data were analyzed using One-Way ANOVA and the Tukey post-hoc test in each time point.

[2] = tested on: patients treated with neuroleptics; conditions: open study, relative high doses; cited from earlier work
[3] = tested on: LID model rats; conditions: buspirone alone 0.2 mg/kg s.c., 11 min before AIM test; FIG. 8A
[4] = tested on: unilaterally 6-OHDA-lesioned rats; conditions: buspirone alone 0.5 mg/kg i.p.
From the text: 6-OHDA (6-hydroxydopamine) is a neurotoxin that selectively kills dopaminergic and noradrenergic neurons and induces a reduction of dopamine levels in the brain. […] These are axial, limb and oral movements that occur only on the body side that is […] to the lesion.
In the mild cases: lateral flexion of the neck or torsional movements of the upper trunk towards the side contralateral to the lesion. With repeated injection of L-DOPA, this movement may develop into a pronounced and continuous dystonia-like axial torsion. […] In mild cases: hyperkinetic, jerky stepping movements of the forelimb contralateral to the lesion, or small circular movements of the forelimb to and from the snout.

CCOC(=O)Nc1ccc(NCc2ccc(F)cc2)cc1N [retigabine, N-(2-amino-4-(4-fluorobenzylamino)-phenylcarbamic acid) ethyl ester]
total move distance (locomotor activity) in open field test ([1]; after 20 to 60 minutes): no significant differences
total velocity (locomotor activity) in open field test ([1]; after 20 to 60 minutes): no significant differences
total velocity (locomotor activity) in open field test ([1]; after 10 minutes, vs vehicle): significantly inhibit
locomotor activity (moving distance and velocity) in open field test ([1]; after 20 mins): no significant difference
locomotor activity (moving distance and velocity) in open field test ([1]; initially (after 10 min)): significantly inhibit
total move distance (locomotor activity) in open field test ([1]; initially, vs vehicle): significantly inhibit

O=C1CC2(CCCC2)CC(=O)N1CCCCN1CCN(c2ncccn2)CC1 [buspirone, 8-[4-(4-pyrimidin-2-ylpiperazin-1-yl)butyl]-8-azaspiro[4.5]decane-7,9-dione]
effects on tardive dyskinesia, Parkinsonism and akathisia [2]: has effects
AUC (10-190 min) of total AIM (Lo+Ax+Li+Ol) [3]: small effect
abnormal involuntary movements (AIM), sum of Lo, Ax, Li and Ol scores per testing session, time course ([4]; FIG. 1, vs vehicle): partially reduced
AUC (20-60 min) of total AIM (Lo+Ax+Li+Ol) ([4]; FIG. 2): partially reduced
AUC (20-60 min) of locomotive limb (Li) AIM scores ([4]; FIG. 3): did not have an effect
AUC (20-60 min) of locomotive Axial (Ax) AIM scores ([4]; FIG. 4): partially reduced
AUC (20-60 min) of Orolingual (OL) AIM scores ([4]; FIG. 5): significantly reduced
